Test results: patent US11866420B2, “Hydrochloride salt forms of a sulfonamide structured kinase inhibitor” (Aurigene Oncology Limited, priority 2018, dated 2024)
Where a name gives a salt, the structure may show the parent alone.

Columns and labels:
Water solubility = type: physicochemical; settings: physiological pH range
[1] = Bioavailability after oral administration; type: in vivo
[2] = Thermogravimetric analysis (TGA), onset of disproportionation; type: physicochemical; settings: for Onset temperature of disproportionation: TGA with head space mass spectroscopy, start of rapid evaporation of Cl ion
Description: The TGA thermograms for the crystalline forms 1, 3, 5 and 8 were collected on TGA equipment (TA Instruments). The gases recovered during each run were analyzed by head space mass spectroscopy (Agilent GS system). The measurement allowed to register the temperature at which rapid evaporation of Cl ion (disproportionation) started.
The onset temperature of disproportionation for crystalline forms 1, 3, 5 and 8 was determined based on TGA measurements.

[3] = Stability of the crystalline forms in different water activity conditions (slurry experiments); type: physicochemical; settings: for Resulting crystalline form: HCl added; for Water activity conditions under which the crystalline form is favoured: water/methanol slurries with HCl, room temperature, 3 days
Text: Stability of the crystalline forms in different water activity conditions was studied in slurry experiments where crystalline forms 1 and 3 were stirred for 3 days at room temperature in mixtures of water and methanol in the presence of HCl to maintain acidic conditions.

[4] = Hygroscopicity (Dynamic Vapour Sorption); type: physicochemical; settings: between 20%-90% RH, T=25° C., DVS mass change
Description: The hygroscopicity of the crystalline forms 1, 3, 5 and 8 was evaluated using DVS-1 Dynamic Vapour Sorption equipment (Surface Measurement Systems Ltd, London, UK). The amount of 5-10 mg of each crystalline form was equilibrated at 20% RH. The mass change (%) was recorded at 30%, 40%, 50%, 60%, 70%, 80% and 90% RH at T=25° C. The equilibration condition at each point was dm/dt≤0.0003.

[5] = Long-term stability of forms 3 and 8 at different storage conditions; type: physicochemical
Description: Long-term stability of crystalline forms 3 and 8 at different storage conditions was studied. The conditions were a) 25° C./RH 60% in a closed vessel, b) 40° C./RH 75% in a closed vessel, c) 40° C./RH 75% in an open vessel and d) 25° C./RH 100% in an open vessel.

With `Cn1cc(-c2ccc3c(c2)ncn3-c2cc(NS(=O)(=O)C3CC3)cc(-c3ccc(F)cc3F)c2)cn1` [Compound (I), N-(2′,4′-difluoro-5-(5-(1-methyl-1H-pyrazol-4-yl)-1H-benzo[d]imidazol-1-yl)-[1,1′-biphenyl]-3-yl)cyclopropanesulfonamide] the Solubility in water (Water solubility) was “practically insoluble” and the “Bioavailability after oral administration” value [1] was “very low”.

For `Cn1cc(-c2ccc3c(c2)ncn3-c2cc(NS(=O)(=O)C3CC3)cc(-c3ccc(F)cc3F)c2)cn1` [Form 1, N-(2′,4′-difluoro-5-(5-(1-methyl-1H-pyrazol-4-yl)-1H-benzo[d]imidazol-1-yl)-[1,1′-biphenyl]-3-yl)cyclopropanesulfonamide hydrochloride], the “Onset temperature of disproportionation” value ([2]; listed as 1, hydrochloride) was 148 °C, the Resulting crystalline form ([3]; 16% H2O in MeOH, water activity 0.44, slurry 3 days at room temperature) was “Form 3 + Form 8” and the Resulting crystalline form ([3]; 26.6% H2O in MeOH, water activity 0.59, slurry 3 days at room temperature) was “Form 3 + Form 8”. The Resulting crystalline form ([3]; 45.2% H2O in MeOH, water activity 0.75, slurry 3 days at room temperature) was “Form 8”, the Resulting crystalline form ([3]; 71.5% H2O in MeOH, water activity 0.88, slurry 3 days at room temperature) was “Form 5” and the Hygroscopicity ([4]; hydrochloride) was “particularly low hygroscopicity”.

In the case of `Cn1cc(-c2ccc3c(c2)ncn3-c2cc(NS(=O)(=O)C3CC3)cc(-c3ccc(F)cc3F)c2)cn1` [Form 3, N-(2′,4′-difluoro-5-(5-(1-methyl-1H-pyrazol-4-yl)-1H-benzo[d]imidazol-1-yl)-[1,1′-biphenyl]-3-yl)cyclopropanesulfonamide hydrochloride], the “Onset temperature of disproportionation” value ([2]; listed as 3, hydrochloride) is reported as 171 °C, the Resulting crystalline form ([3]; 4.7% H2O in MeOH, water activity 0.17, slurry 3 days at room temperature) is reported as “Form 3” and the Resulting crystalline form ([3]; 10% H2O in MeOH, water activity 0.31, slurry 3 days at room temperature) is reported as “Form 3”. For the same compound, the Resulting crystalline form ([3]; MeOH, water activity 0, slurry stirred 3 days at room temperature) was “Form 3”, the “Water activity conditions under which the crystalline form is favoured” value ([3]; listed as crystalline form 3, hydrochloride) was “ambient to about 0.3” and the “Long-term stability: stable up to” value ([5]; 25° C./RH 60% closed vessel, listed as Crystalline form 3, hydrochloride) was “Stable up to 36 months”. The “Long-term stability: time after which form changed” value ([5]; 25° C./RH 100% open vessel) was 1 week, the “Long-term stability: change of crystalline form” value (“Long-term stability: change” for short) ([5]; 25° C./RH 100% open vessel, hydrochloride) was 5 and the “Long-term stability: change” value ([5]; 25° C./RH 100% open vessel, listed as Crystalline form 3, hydrochloride) was “Change to form 5 after”. The “Long-term stability: stable up to” value ([5]; 40° C./RH 75% closed vessel, listed as Crystalline form 3, hydrochloride) was “Stable up to 12 months”, the “Long-term stability: time after which form changed” value ([5]; 40° C./RH 75% open vessel) was 1 days and the “Long-term stability: change” value ([5]; 40° C./RH 75% open vessel, hydrochloride) was “changes to form 8”. For the same compound, the “Long-term stability: change” value ([5]; 40° C./RH 75% open vessel, listed as Crystalline form 3, hydrochloride) was “Change to form 8 after”.

In the case of `Cn1cc(-c2ccc3c(c2)ncn3-c2cc(NS(=O)(=O)C3CC3)cc(-c3ccc(F)cc3F)c2)cn1` [Form 5, N-(2′,4′-difluoro-5-(5-(1-methyl-1H-pyrazol-4-yl)-1H-benzo[d]imidazol-1-yl)-[1,1′-biphenyl]-3-yl)cyclopropanesulfonamide hydrochloride], the “Onset temperature of disproportionation” value ([2]; listed as 5, hydrochloride) is reported as 145 °C and the “Water activity conditions under which the crystalline form is favoured” value ([3]; listed as crystalline form 5, hydrochloride) is reported as “about 0.9”.

With `Cn1cc(-c2ccc3c(c2)ncn3-c2cc(NS(=O)(=O)C3CC3)cc(-c3ccc(F)cc3F)c2)cn1` [Form 8, N-(2′,4′-difluoro-5-(5-(1-methyl-1H-pyrazol-4-yl)-1H-benzo[d]imidazol-1-yl)-[1,1′-biphenyl]-3-yl)cyclopropanesulfonamide hydrochloride] the “Onset temperature of disproportionation” value ([2]; listed as 8, hydrochloride) was 187 °C, the “Thermal stability against disproportionation” value ([2]; TGA, compared among crystalline forms 1, 3, 5 and 8) was “highest thermal stability” and the “Long-term stability: stable up to” value ([5]; 25° C./RH 60% closed vessel, listed as Crystalline form 8, hydrochloride) was no less than 36 months. The “Long-term stability: stable up to” value ([5]; 25° C./RH 100% open vessel) was no less than 2 months, the “Long-term stability: stable up to” value ([5]; 40° C./RH 75% closed vessel, listed as Crystalline form 8, hydrochloride) was no less than 6 months and the “Long-term stability: stable up to” value ([5]; 40° C./RH 75% open vessel) was no less than 1 month. For the same compound, the “Stability at storage conditions (overall)” value ([5]; all storage conditions (25° C./RH 60%, 40° C./RH 75% closed and open, 25° C./RH 100% open)) was “good stability” and the Hygroscopicity ([4]; listed as form 8, hydrochloride) was “practically non-hygroscopic”.
